ChEMBL document CHEMBL3856215, “Design and synthesis of N-(5-chloro-2,4-dihydroxybenzoyl)-(R)-1,2,3,4-tetrahydroisoquinoline-3-carboxamides as novel Hsp90 inhibitors” (Eur J Med Chem, 2016)
Activity calls are given as the source filed them. No cut-off for these calls is given here.

Assays:
[1] = Antiproliferative activity against human HeLa cells after 72 hrs by SRB assay; type: functional, cell-based
[2] = Antiproliferative activity against human MDA-MB-231 cells after 72 hrs by SRB assay; type: functional, cell-based; conditions: MDA-MB-231, 72 h
[3] = biological target: Heat shock protein HSP 90-alpha (Homo sapiens) (UniProt P07900); test: Induction of thermal stabilization of Hsp90alpha in human 293T cells preincubated for 3 hrs followed by […] at 55 degC and subsequently […] at room temperature by Western blot method; type: cell-based
[4] = biological target: Heat shock protein HSP 90-alpha (Homo sapiens) (UniProt P07900); test: Induction of thermal stabilization of Hsp90alpha in human 293T cells at 10 uM preincubated for 3 hrs followed by […] at 37 to 61 degC and subsequently […] at room temperature by Western blot method; type: cell-based
[5] = biological target: T1, Heat shock protein HSP90 (Homo sapiens) (UniProt P07900+P08238); test: Inhibition of Hsp90 in human MDA-MB-231 cells assessed as downregulation of Cdc-2 expression after 24 hrs by Western blot analysis; type: cell-based
[6] = biological target: T1, Heat shock protein HSP90 (Homo sapiens); test: Inhibition of Hsp90 in human MDA-MB-231 cells assessed as downregulation of C-raf expression after 24 hrs by Western blot analysis; type: cell-based
[7] = biological target: T1, Heat shock protein HSP90 (Homo sapiens); test: Inhibition of Hsp90 in human MDA-MB-231 cells assessed as upregulation of Hsp70 expression after 24 hrs by Western blot analysis; type: cell-based
[8] = biological target: T1, Heat shock protein HSP90 (Homo sapiens); test: Inhibition of Hsp90 in human MDA-MB-231 cells assessed as downregulation of Her2 expression after 24 hrs by Western blot analysis; type: cell-based
[9] = biological target: T1, Heat shock protein HSP90 (Homo sapiens); test: Inhibition of Hsp90 in human MDA-MB-231 cells assessed as downregulation of CDK4 expression after 24 hrs by Western blot analysis; type: cell-based

| Compound | IC50 [1] | IC50 [2] | other results |
| --- | --- | --- | --- |
| CNC(=O)[C@@H]1Cc2ccccc2CN1C(=O)c1cc(Cl)c(O)cc1O | > 10 µM | 9.43 µM |  |
| CCN(CC)C(=O)[C@@H]1Cc2ccccc2CN1C(=O)c1cc(Cl)c(O)cc1O | 7.8 µM | 6.2 µM |  |
| CCCNC(=O)[C@H]1Cc2ccccc2CN1C(=O)c1cc(Cl)c(O)cc1O | 3.98 µM | 2.58 µM |  |
| O=C(NC1CCCCC1)[C@H]1Cc2ccccc2CN1C(=O)c1cc(Cl)c(O)cc1O | 3.55 µM | 2.05 µM |  |
| O=C(Nc1ccccc1)[C@@H]1Cc2ccccc2CN1C(=O)c1cc(Cl)c(O)cc1O | > 10 µM | > 10 µM |  |
| O=C(NCCc1ccccc1)[C@H]1Cc2ccccc2CN1C(=O)c1cc(Cl)c(O)cc1O | 4.75 µM | 2.65 µM |  |
| O=C(Nc1ccccc1)[C@H]1Cc2ccccc2CN1C(=O)c1cc(Cl)c(O)cc1O | 2.69 µM | 1.9 µM |  |
| CC(C)NC(=O)[C@@H]1Cc2ccccc2CN1C(=O)c1cc(Cl)c(O)cc1O | 7.12 µM | 5.81 µM |  |
| CCN(CC)C(=O)[C@H]1Cc2ccccc2CN1C(=O)c1cc(Cl)c(O)cc1O | 4.91 µM | 2.24 µM |  |
| CCNC(=O)[C@H]1Cc2ccccc2CN1C(=O)c1cc(Cl)c(O)cc1O | 4.57 µM | 4.62 µM |  |
| O=C(NCc1ccccc1)[C@@H]1Cc2ccccc2CN1C(=O)c1cc(Cl)c(O)cc1O | 4.58 µM | 4.05 µM |  |
| CNC(=O)[C@H]1Cc2ccccc2CN1C(=O)c1cc(Cl)c(O)cc1O | 7.62 µM | 9.42 µM |  |
| CC(C)NC(=O)[C@H]1Cc2ccccc2CN1C(=O)c1cc(Cl)c(O)cc1O | 3.08 µM | 2.49 µM |  |
| O=C(NC1CCCC1)[C@@H]1Cc2ccccc2CN1C(=O)c1cc(Cl)c(O)cc1O | > 10 µM | > 10 µM |  |
| O=C([C@@H]1Cc2ccccc2CN1C(=O)c1cc(Cl)c(O)cc1O)N1CCCCC1 | 8.88 µM | 9.64 µM |  |
| C=CCNC(=O)[C@@H]1Cc2ccccc2CN1C(=O)c1cc(Cl)c(O)cc1O | 7 µM | 6.74 µM |  |
| O=C([C@H]1Cc2ccccc2CN1C(=O)c1cc(Cl)c(O)cc1O)N1CCCCC1 | 3.45 µM | 1.64 µM |  |
| CCCNC(=O)[C@@H]1Cc2ccccc2CN1C(=O)c1cc(Cl)c(O)cc1O | 7.5 µM | 5.34 µM |  |
| C=CCNC(=O)[C@H]1Cc2ccccc2CN1C(=O)c1cc(Cl)c(O)cc1O | 3.07 µM | 2.15 µM |  |
| COC1=C2C[C@@H](C)C[C@H](OC)[C@H](O)[C@@H](C)/C=C(\C)[C@H](OC(N)=O)[C@@H](OC)/C=C\C=C(/C)C(=O)NC(=CC1=O)C2=O [GELDANAMYCIN] | 0.06 µM | 0.03 µM |  |
| O=C(NCc1ccccc1)[C@H]1Cc2ccccc2CN1C(=O)c1cc(Cl)c(O)cc1O | 1.74 µM | 0.98 µM | Activity [3]: Dose-dependent effect; Activity [4]: Active; inhibition [5]: Dose-dependent effect; inhibition [6]: Dose-dependent effect; inhibition [7]: Dose-dependent effect; inhibition [8]: Dose-dependent effect; inhibition [9]: Dose-dependent effect |
| O=C([C@@H]1Cc2ccccc2CN1C(=O)c1cc(Cl)c(O)cc1O)N1CCCC1 | 9.76 µM | 7.88 µM |  |
| C=CCNC1=C2C[C@@H](C)C[C@H](OC)[C@H](O)[C@@H](C)/C=C(\C)[C@H](OC(N)=O)[C@@H](OC)/C=C\C=C(/C)C(=O)NC(=CC1=O)C2=O [TANESPIMYCIN] | 0.2 µM | 0.52 µM |  |
| O=C(NC1CCCCC1)[C@@H]1Cc2ccccc2CN1C(=O)c1cc(Cl)c(O)cc1O | 5.42 µM | 7.3 µM |  |
| CCNC(=O)[C@@H]1Cc2ccccc2CN1C(=O)c1cc(Cl)c(O)cc1O | 5.18 µM | 3.88 µM |  |
| O=C([C@H]1Cc2ccccc2CN1C(=O)c1cc(Cl)c(O)cc1O)N1CCCC1 | 3.97 µM | 1.94 µM |  |
| O=C(NCCc1ccccc1)[C@@H]1Cc2ccccc2CN1C(=O)c1cc(Cl)c(O)cc1O | > 10 µM | 9.05 µM |  |
| O=C(NC1CCCC1)[C@H]1Cc2ccccc2CN1C(=O)c1cc(Cl)c(O)cc1O | 5.42 µM | 3.51 µM |  |
